Patent publication US11214803B2, “Modulators of YAP1 expression” (Ionis Pharmaceuticals, Inc., priority 2019, dated 2022)
Strand notation (5' to 3'): a small letter for the sugar, then the base; units joined by * are phosphorothioate-linked, units joined directly phosphodiester-linked; [ ] holds rarer units or linkages, { } end groups; capitals alone tell only the bases. k = constrained ethyl (cEt); [5mC] = 5-methylcytosine; d = 2'-deoxy (DNA)

Test system: Yap1 mRNA
Assay: Antisense inhibition of human Yap1 in A-431 cells by cEt gapmers, single dose (Example 2, RTS4814)
Assay type: cell-based
Outline: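 Read-out is Yap1 mRNA as percent of untreated cells, by real-time RT-PCR (probe set RTS4814) normalized to total RNA via RIBOGREEN. Cells were A-431 dosed with 2,000 nM gapmer without transfection for approximately 48 hours.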

[1] = Table 7 (gapmers targeting SEQ ID NO: 3 and 4), A-431 cells, free uptake, 2,000 nM, approximately 48 hours, RTS4814
[2] = Table 5, A-431 cells, 5,000 cells per well, free uptake, 2,000 nM modified oligonucleotide, approx. 48 hours, RTS4814, normalized to RIBOGREEN, Yap1 mRNA relative to untreated control cells
[3] = Table 6, A-431 cells, 5,000 cells per well, free uptake, 2,000 nM modified oligonucleotide, approx. 48 hours, RTS4814, normalized to RIBOGREEN, Yap1 mRNA relative to untreated control cells
[4] = A-431 cells, 5,000 cells per well, free uptake, 2,000 nM modified oligonucleotide, approx. 48 hours, RTS4814, normalized to RIBOGREEN, Table 4, asterisk (*) = targets amplicon region of primer probe set
[5] = Table 18, A-431 cells, 5,000 cells per well, free uptake, 2,000 nM modified oligonucleotide, approx. 48 hours, RTS4814, normalized to RIBOGREEN, Yap1 mRNA as percent of untreated control
[6] = Table 19, A-431 cells, 5,000 cells per well, free uptake, 2,000 nM modified oligonucleotide, approx. 48 hours, RTS4814, normalized to RIBOGREEN, Yap1 mRNA as percent of untreated control
[7] = Table 20, Yap1 mRNA, percent of untreated control, 3-10-3 cEt gapmers targeting SEQ ID NO.: 1 and 2
[8] = Table 21, Yap1 mRNA, percent of untreated control, 3-10-3 cEt gapmers targeting SEQ ID NO.: 1 and 2
[9] = Table 22, Yap1 mRNA as percent of untreated control, 3-10-3 cEt gapmers, single dose
[10] = Table 23, Yap1 mRNA as percent of untreated control, 3-10-3 cEt gapmers, single dose
[11] = Table 24, Yap1 mRNA as percent of untreated control, 3-10-3 cEt gapmers targeting SEQ ID NO.: 1, and 2
[12] = Table 25, Yap1 mRNA as percent of untreated control, 3-10-3 cEt gapmers targeting SEQ ID NO.: 1, and 2
[13] = Yap1 mRNA as percent of untreated control, A-431 cells, 3-10-3 cEt gapmers targeting SEQ ID NO.: 1, and 2, Table 30
[14] = Yap1 mRNA as percent of untreated control, A-431 cells, 3-10-3 cEt gapmers targeting SEQ ID NO.: 1, and 2, Table 31
[15] = Table 32, Yap1 mRNA, percent of untreated control, 3-10-3 cEt gapmers targeting SEQ ID NO.: 1, and 2

716562 (kG*k[5mC]*k[5mC]*dT*dG*d[5mC]*d[5mC]*dG*dA*dA*dG*d[5mC]*dA*kG*kT*kT) [Compound 716562]
YAP1 (% UTC) [1]: 103 % UTC

716563 (kT*kG*kA*dA*dG*d[5mC]*dA*dA*dG*dT*dT*d[5mC]*dT*k[5mC]*kA*kA; antisense) [Compound 716563]
YAP1 (% UTC) [2]: 126 % UTC

716564 (k[5mC]*kT*kT*dT*dT*dG*dG*dG*d[5mC]*dA*dA*dA*dG*kT*kT*k[5mC]; antisense) [Compound 716564]
YAP1 (% UTC) [3]: 103 % UTC

716565 (kG*kG*kG*d[5mC]*dT*dA*dA*d[5mC]*dT*dA*d[5mC]*dA*dT*kT*kG*k[5mC]; antisense) [Compound 716565]
YAP1 (% UTC) [4]: 129 % UTC

716566 (kG*kG*kT*dA*dA*d[5mC]*dT*d[5mC]*dT*dT*d[5mC]*dT*dT*kT*k[5mC]*k[5mC]; antisense) [Compound 716566]
YAP1 (% UTC) [2]: 102 % UTC

716567 (kG*kA*k[5mC]*dT*dA*dT*dA*d[5mC]*dA*dA*d[5mC]*dA*dG*kG*k[5mC]*k[5mC]; antisense) [Compound 716567]
YAP1 (% UTC) [3]: 134 % UTC

716568 (kG*kA*kT*dT*dT*dT*dT*dT*d[5mC]*dT*dG*dA*dG*kT*kT*k[5mC]; antisense) [Compound 716568]
YAP1 (% UTC) [4]: 72 % UTC

716569 (k[5mC]*kT*k[5mC]*d[5mC]*dT*dT*dA*dA*d[5mC]*d[5mC]*d[5mC]*dG*dG*kG*kT*kT; antisense) [Compound 716569]
YAP1 (% UTC) [2]: 115 % UTC

716570 (kA*kA*kG*dT*dG*dT*dT*dT*dA*dG*dG*d[5mC]*dA*kA*kG*k[5mC]; antisense) [Compound 716570]
YAP1 (% UTC) [3]: 56 % UTC

716571 (kG*k[5mC]*kT*dG*dA*dA*dG*d[5mC]*d[5mC]*dG*dA*dG*dT*kT*k[5mC]*kA) [Compound 716571]
YAP1 (% UTC) [1]: 91 % UTC

716572 (k[5mC]*kA*kG*dT*dA*dA*dG*dA*dA*dG*d[5mC]*d[5mC]*dA*kA*kA*kA; antisense) [Compound 716572]
YAP1 (% UTC) [2]: 122 % UTC

716573 (kA*kG*kT*dT*dA*d[5mC]*dT*dA*d[5mC]*dT*dG*dT*dA*kA*kT*k[5mC]; antisense) [Compound 716573]
YAP1 (% UTC) [3]: 116 % UTC

716574 (kT*kA*k[5mC]*dA*d[5mC]*dT*dG*dT*dA*dT*dA*dT*dG*kT*kT*k[5mC]; antisense) [Compound 716574]
YAP1 (% UTC) [4]: 91 % UTC

716575 (kA*kA*kA*dG*dA*dA*d[5mC]*dT*dT*dA*dG*dT*dT*k[5mC]*k[5mC]*k[5mC]; antisense) [Compound 716575]
YAP1 (% UTC) [2]: 84 % UTC

716576 (kT*kG*kT*d[5mC]*dA*dG*dT*dT*dA*dT*d[5mC]*d[5mC]*dT*kA*kT*k[5mC]; antisense) [Compound 716576]
YAP1 (% UTC) [3]: 52 % UTC

716577 (kT*k[5mC]*kT*dG*dT*d[5mC]*dA*dG*dT*dT*dA*dT*d[5mC]*k[5mC]*kT*kA; antisense) [Compound 716577]
YAP1 (% UTC) [4]: 21 % UTC

716578 (kA*kA*k[5mC]*dT*dT*dT*d[5mC]*dA*d[5mC]*dA*dT*dA*dA*kA*k[5mC]*kT; antisense) [Compound 716578]
YAP1 (% UTC) [2]: 102 % UTC

716579 (kA*kT*kA*dG*dA*dG*dA*dT*dT*dT*dT*d[5mC]*d[5mC]*k[5mC]*kT*k[5mC]; antisense) [Compound 716579]
YAP1 (% UTC) [3]: 84 % UTC

1074116 (antisense kG*kA*kG*dA*dA*d[5mC]*dT*dT*dT*dT*dT*d[5mC]*d[5mC]*k[5mC]*kT*k[5mC]) [Compound 1074116]
YAP1 (% UTC) [5]: 112 % UTC

1074117 (antisense kG*k[5mC]*kG*d[5mC]*d[5mC]*dT*dG*dA*dG*dA*dA*d[5mC]*dT*kT*kT*kT) [Compound 1074117]
YAP1 (% UTC) [6]: 87 % UTC

1074118 (antisense k[5mC]*kA*k[5mC]*dT*d[5mC]*dG*dG*dA*d[5mC]*d[5mC]*dT*dG*d[5mC]*kG*kG*k[5mC]) [Compound 1074118]
YAP1 (% UTC) [7]: 66 % UTC

1074119 (antisense kG*k[5mC]*kA*d[5mC]*dT*d[5mC]*dG*dG*dA*d[5mC]*d[5mC]*dT*dG*k[5mC]*kG*kG) [Compound 1074119]
YAP1 (% UTC) [8]: 71 % UTC

1074120 (antisense kG*k[5mC]*kG*dA*dG*dG*d[5mC]*dA*d[5mC]*dT*d[5mC]*dG*dG*kA*k[5mC]*k[5mC]) [Compound 1074120]
YAP1 (% UTC) [9]: 50 % UTC

1074121 (antisense kT*kG*k[5mC]*dG*dA*dG*dG*d[5mC]*dA*d[5mC]*dT*d[5mC]*dG*kG*kA*k[5mC]) [Compound 1074121]
YAP1 (% UTC) [10]: 87 % UTC

1074122 (antisense k[5mC]*kT*kG*d[5mC]*dG*dA*dG*dG*d[5mC]*dA*d[5mC]*dT*d[5mC]*kG*kG*kA) [Compound 1074122]
YAP1 (% UTC) [11]: 73 % UTC

1074123 (antisense kG*k[5mC]*kT*dG*d[5mC]*dG*dA*dG*dG*d[5mC]*dA*d[5mC]*dT*k[5mC]*kG*kG) [Compound 1074123]
YAP1 (% UTC) [12]: 72 % UTC

1074128 (k[5mC]*kT*k[5mC]*d[5mC]*dA*d[5mC]*dT*dG*dG*dT*d[5mC]*dT*dG*kG*k[5mC]*kG; antisense) [compound 1074128]
YAP1 (% UTC) [13]: 76 % UTC

1074129 (k[5mC]*k[5mC]*k[5mC]*dG*dG*d[5mC]*dT*d[5mC]*d[5mC]*dA*d[5mC]*dT*dG*kG*kT*k[5mC]; antisense) [compound 1074129]
YAP1 (% UTC) [14]: 77 % UTC

1074130 (kA*kT*k[5mC]*d[5mC]*d[5mC]*d[5mC]*d[5mC]*dG*d[5mC]*d[5mC]*d[5mC]*d[5mC]*dG*kG*k[5mC]*kG; antisense) [compound 1074130]
YAP1 (% UTC) [15]: 119 % UTC

1074131 (kG*kG*k[5mC]*d[5mC]*d[5mC]*d[5mC]*dG*d[5mC]*dA*dT*d[5mC]*d[5mC]*d[5mC]*k[5mC]*k[5mC]*kG; antisense) [compound 1074131]
YAP1 (% UTC) (Table 33, Yap1 mRNA, percent of untreated control, 3-10-3 cEt gapmers targeting SEQ ID NO.: 1, and 2): 72 % UTC

1074148 (antisense kG*kT*kG*dG*dA*dG*dA*dA*dG*d[5mC]*dG*dG*d[5mC]*kG*kA*k[5mC]) [Compound 1074148]
YAP1 (% UTC) [5]: 66 % UTC

1074149 (antisense kG*k[5mC]*k[5mC]*dG*dA*dG*dG*dT*dG*dG*dA*dG*dA*kA*kG*k[5mC]) [Compound 1074149]
YAP1 (% UTC) [6]: 58 % UTC

1074150 (antisense kG*kG*k[5mC]*d[5mC]*dG*dA*dG*dG*dT*dG*dG*dA*dG*kA*kA*kG) [Compound 1074150]
YAP1 (% UTC) [7]: 85 % UTC

1074151 (antisense kG*kG*kG*d[5mC]*d[5mC]*dG*dA*dG*dG*dT*dG*dG*dA*kG*kA*kA) [Compound 1074151]
YAP1 (% UTC) [8]: 81 % UTC

1074152 (antisense k[5mC]*kG*kG*dG*d[5mC]*d[5mC]*dG*dA*dG*dG*dT*dG*dG*kA*kG*kA) [Compound 1074152]
YAP1 (% UTC) [9]: 77 % UTC

1074153 (antisense k[5mC]*kA*k[5mC]*dG*dG*dG*d[5mC]*d[5mC]*dG*dA*dG*dG*dT*kG*kG*kA) [Compound 1074153]
YAP1 (% UTC) [10]: 78 % UTC

1074154 (antisense k[5mC]*k[5mC]*kA*d[5mC]*dG*dG*dG*d[5mC]*d[5mC]*dG*dA*dG*dG*kT*kG*kG) [Compound 1074154]
YAP1 (% UTC) [11]: 100 % UTC

1074155 (antisense k[5mC]*k[5mC]*k[5mC]*dG*dG*d[5mC]*dT*d[5mC]*d[5mC]*dA*d[5mC]*dG*dG*kG*k[5mC]*k[5mC]) [Compound 1074155]
YAP1 (% UTC) [12]: 87 % UTC

1074160 (kG*k[5mC]*kG*dA*dG*d[5mC]*dG*dA*dG*dG*dG*d[5mC]*dT*kA*k[5mC]*kG; antisense) [compound 1074160]
YAP1 (% UTC) [13]: 86 % UTC

1074161 (kG*kG*k[5mC]*dG*dA*dG*d[5mC]*dG*dA*dG*dG*dG*d[5mC]*kT*kA*k[5mC]; antisense) [compound 1074161]
YAP1 (% UTC) [14]: 98 % UTC

1074162 (kA*kG*kG*d[5mC]*dG*dA*dG*d[5mC]*dG*dA*dG*dG*dG*k[5mC]*kT*kA; antisense) [compound 1074162]
YAP1 (% UTC) [15]: 101 % UTC
